# US9157917B2, “Applications of Indoloindole and Indoloquinoline dyes” (Biosynth AG, priority 2010, dated 2015)
# Experiments:
# E. coli = experiment: Fluorescence of Aldol 495 nonanoate in nutrient broth cultures; assay type: cell-based
# [1] = Fluorescence of Aldol 495 nonanoate in nutrient broth, sterile control; assay type: physicochemical
# [2] = test system: various bacterial strains; experiment: Nonanoate indicators in buffered peptone water in polystyrene plates; assay type: cell-based; conditions: 0.4 mM, polystyrene plate, 37° C., 48 hours, excitation 360 nm, emission 560 nm
# Procedure: Buffered peptone water containing either 0.4 mM Aldol™ 495 nonanoate or 0.2 mM 4-methylumbelliferyl nonanoate was dispensed in a microtiter plate and inoculated with about 700 cfu/ml of various bacterial strains. […] An excitation wavelength of 360 nm was used for both dyes, the emission wavelength was 560 nm for the Aldol™ 495 dye and 460 nm for the 4-methylumbelliferone.
# Salmonella = Salmonella grown in medium with precursor emulsion in glass tubes; assay type: cell-based; conditions: medium without detergents
# S. enteritidis = experiment: Fluorescence of Aldol 495 nonanoate in nutrient broth cultures; conditions: for Fluorescence values: S. enteritidis
smiles,measurement,setting,value
CCCCCCCCC(=O)Oc1cn(-c2ccccc2C(=O)c2cccn2C)c2cc(Cl)ccc12 [Aldol™ 495 nonanoate],Fluorescence values,"E. coli; stock solution 50 mM, 0 h",424 RFU
same,Fluorescence values,"E. coli; stock solution 50 mM, 12 h",463 RFU
same,Fluorescence values,"E. coli; stock solution 50 mM, 18 h",551 RFU
same,Fluorescence values,"E. coli; stock solution 50 mM, 48 h",1710 RFU
same,Fluorescence values,"E. coli; stock solution 50 mM, 120 h",3851 RFU
same,Fluorescence values,"E. coli; stock solution 200 mM, 0 h",444 RFU
same,Fluorescence values,"E. coli; stock solution 200 mM, 12 h",404 RFU
same,Fluorescence values,"E. coli; stock solution 200 mM, 18 h",468 RFU
same,Fluorescence values,"E. coli; stock solution 200 mM, 48 h",774 RFU
same,Fluorescence values,"E. coli; stock solution 200 mM, 120 h",1924 RFU
same,Fluorescence values,"[1]; stock solution 50 mM, 0 h",392 RFU
same,Fluorescence values,"[1]; stock solution 50 mM, 12 h",445 RFU
same,Fluorescence values,"[1]; stock solution 50 mM, 18 h",434 RFU
same,Fluorescence values,"[1]; stock solution 50 mM, 48 h",511 RFU
same,Fluorescence values,"[1]; stock solution 50 mM, 120 h",523 RFU
same,Fluorescence values,"[1]; stock solution 200 mM, 0 h",433 RFU
same,Fluorescence values,"[1]; stock solution 200 mM, 12 h",399 RFU
same,Fluorescence values,"[1]; stock solution 200 mM, 18 h",411 RFU
same,Fluorescence values,"[1]; stock solution 200 mM, 48 h",422 RFU
same,Fluorescence values,"[1]; stock solution 200 mM, 120 h",455 RFU
same,Specificity of fluorescence,[2],specific for Salmonella strains
same,Fluorescence of Salmonella culture,Salmonella,yellow green fluorescence
same,"Fluorescence signal, indicator added from 20 mM stock solution versus 200 mM stock solution",S. enteritidis,stronger fluorescence signal
same,Fluorescence values,"S. enteritidis; stock solution 50 mM, 0 h",406 RFU
same,Fluorescence values,"S. enteritidis; stock solution 50 mM, 12 h",2922 RFU
same,Fluorescence values,"S. enteritidis; stock solution 50 mM, 18 h",10047 RFU
same,Fluorescence values,"S. enteritidis; stock solution 50 mM, 48 h",45027 RFU
same,Fluorescence values,"S. enteritidis; stock solution 50 mM, 120 h",13424 RFU
same,Fluorescence values,"S. enteritidis; stock solution 200 mM, 0 h",412 RFU
same,Fluorescence values,"S. enteritidis; stock solution 200 mM, 12 h",1812 RFU
same,Fluorescence values,"S. enteritidis; stock solution 200 mM, 18 h",3449 RFU
same,Fluorescence values,"S. enteritidis; stock solution 200 mM, 48 h",8403 RFU
same,Fluorescence values,"S. enteritidis; stock solution 200 mM, 120 h",5169 RFU
